Laboratory results as given in ChEMBL document CHEMBL6103545, “Discovery of GS-2278, a Potent and Selective LPAR1 Antagonist for the Treatment of Idiopathic Pulmonary Fibrosis” (J Med Chem, 2025).

Legend:
[1] = Lipophilicity, logD of compound at pH 7.4; format: physicochemical; conditions: buffer
[2] = Plasma protein binding in human assessed as unbound fraction incubated for 24 hrs by equilibrium dialysis based Rapidfire-QToF mass spectrometric analysis; format: ADME, cell-free
[3] = Apparent permeability across apical to basolateral side in cMDR1 knockout MDCK-II cells incubated upto 240 mins by RF-QToF analysis; format: ADME, cell-based, Canis lupus familiaris; conditions: dog
[4] = molecular target: T1, Lysophosphatidic acid receptor 1 (Homo sapiens, UniProt Q92633); experiment: Antagonist activity at LPA1 receptor in serum starved human TWNT-4 cells assessed as nuclear translocation pre-incubated for 1 hr followed by LPA stimulation and measured after 30 min by MRTF-A assay; format: cell-based
T1 sequence (Q92633 whole entry): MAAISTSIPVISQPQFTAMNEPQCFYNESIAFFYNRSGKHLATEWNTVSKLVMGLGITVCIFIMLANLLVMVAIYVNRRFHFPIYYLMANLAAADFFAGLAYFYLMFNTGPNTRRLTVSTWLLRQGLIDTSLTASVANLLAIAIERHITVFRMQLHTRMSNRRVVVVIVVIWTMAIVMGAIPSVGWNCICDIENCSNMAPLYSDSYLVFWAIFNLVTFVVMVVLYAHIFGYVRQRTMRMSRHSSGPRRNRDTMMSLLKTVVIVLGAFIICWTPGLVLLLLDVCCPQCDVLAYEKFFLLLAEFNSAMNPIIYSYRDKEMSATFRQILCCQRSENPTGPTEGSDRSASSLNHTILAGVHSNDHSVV

[5] = Metabolic stability in cynomolgus monkey liver microsomes assessed as intrinsic clearance at 1 uM by LC/MS/MS analysis; format: ADME, Macaca fascicularis, Microsome; conditions: read-out: CLH (converted)
[6] = AUC (0 to 24 hrs) in cynomolgus monkey at 5 mg/kg, po measured after 24 hrs by LC/MS/MS analysis; format: ADME, organism-based, Macaca fascicularis; conditions: in vivo
[7] = Oral bioavailability in cynomolgus monkey at 5 mg/kg measured after 24 hrs by LC/MS/MS analysis; format: ADME, organism-based, Macaca fascicularis; conditions: in vivo
[8] = Half-life in male Sprague-Dawley rat at 1 mg/kg, iv measured after 24 hrs by LC/MS/MS analysis; format: ADME, organism-based; conditions: in vivo
[9] = Half-life in cynomolgus monkey at 5 mg/kg, po measured after 24 hrs by LC/MS/MS analysis; format: ADME, organism-based, Macaca fascicularis; conditions: in vivo
[10] = Volume of distribution in cynomolgus monkey at 1 mg/kg, iv measured after 24 hrs by LC/MS/MS analysis; format: ADME, organism-based, Macaca fascicularis; conditions: in vivo
[11] = Metabolic stability in male Sprague-Dawley rat liver microsomes assessed as intrinsic clearance at 1 uM by LC/MS/MS analysis; format: ADME, Microsome; conditions: read-out: CLH (converted)
[12] = Metabolic stability in Beagle dog liver microsomes assessed as intrinsic clearance at 1 uM by LC/MS/MS analysis; format: ADME, Canis lupus familiaris, Microsome; conditions: read-out: CLH (converted)
[13] = Volume of distribution in male Sprague-Dawley rat at 1 mg/kg, iv s measured after 24 hrs by LC/MS/MS analysis; format: ADME, organism-based; conditions: in vivo
[14] = AUC (0 to 24 hrs) in male Sprague-Dawley rat at 5 mg/kg, po measured after 24 hrs by LC/MS/MS analysis; format: ADME, organism-based; conditions: in vivo
[15] = Oral bioavailability in Beagle dog at 5 mg/kg measured after 24 hrs by LC/MS/MS analysis; format: ADME, organism-based, Canis lupus familiaris; conditions: in vivo
[16] = Oral bioavailability in male Sprague-Dawley rat at 5 mg/kg measured after 24 hrs by LC/MS/MS analysis; format: ADME, organism-based; conditions: in vivo
[17] = Volume of distribution in Beagle dog at 1 mg/kg, iv measured after 24 hrs by LC/MS/MS analysis; format: ADME, organism-based, Canis lupus familiaris; conditions: in vivo
[18] = AUC (0 to 24 hrs) in Beagle dog at 5 mg/kg, po measured after 24 hrs by LC/MS/MS analysis; format: ADME, organism-based, Canis lupus familiaris; conditions: in vivo
[19] = Half-life in Beagle dog at 5 mg/kg, po measured after 24 hrs by LC/MS/MS analysis; format: ADME, organism-based, Canis lupus familiaris; conditions: in vivo
[20] = molecular target: T1, Lysophosphatidic acid receptor 1; experiment: […] at LPA1 receptor in human TWNT-4 cells assessed as nuclear translocation pre-incubated for 1 hr followed by 30 min incubation by MRTF-A assay; format: functional, cell-based
[21] = molecular target: T1, Lysophosphatidic acid receptor 1; experiment: […] at LPA1 receptor in human TWNT-4 cells pre-incubated for 1 hr followed by 30 mins incubation in presence of 4% human serum albumin by MRTF-A assay; format: functional, cell-based
[22] = Drug excretion in bile-duct cannulated rat urine at 1 mg/kg, iv; format: ADME, organism-based; conditions: read-out: Drug excretion
[23] = Dissociation constant, pKa of compound at 100 uM by capillary electrophoresis; format: physicochemical

| Compound | logD [1] | EC50 [4] [nM] | fraction unbound at 24 h [2] | Papp A→B at 4 h [3] [×10⁻⁶ cm/s] | further results |
| --- | --- | --- | --- | --- | --- |
| C[C@@H](OC(=O)Nc1c(-c2ccccc2)nnn1C)c1ccccc1Cl | 3.2 | – | – | – | – |
| Cc1nc(-c2nnn(C)c2NC(=O)O[C@H](C)c2cccnc2F)ccc1NS(C)(=O)=O | 1.4 | 1370 | 0.38 | 5.6 | – |
| CC(=O)Nc1ccc(-c2nnn(C)c2NC(=O)O[C@H](C)c2cc(F)cnc2F)nc1 | 1.3 | 1350 | 0.36 | 7.7 | – |
| C[C@@H](OC(=O)Nc1c(-c2ccc(NS(C)(=O)=O)cn2)nnn1C)c1cccc(F)c1 | 1.9 | 522 | 0.25 | 15 | – |
| C[C@@H](OC(=O)Nc1c(-c2ccc(S(=O)(=O)NC3CC3)cc2)nnn1C)c1ccccc1Cl | 2.9 | – | – | – | – |
| C[C@@H](OC(=O)Nc1c(-c2ccc(N(C)S(C)(=O)=O)cc2)nnn1C)c1ccccc1Cl | 2.7 | 890 | – | – | – |
| C[C@@H](OC(=O)Nc1c(-c2ccc(NC(=O)c3ccnc(C(F)(F)F)c3)cn2)nnn1C)c1cc(F)cnc1F | 2.7 | – | 0.14 | 4.6 | – |
| Cc1nc(-c2nnn(C)c2NC(=O)O[C@H](C)c2cc(F)ccc2F)ccc1NS(C)(=O)=O | 2.4 | 953 | 0.19 | 20 | – |
| C[C@@H](OC(=O)Nc1c(-c2ccc(N)cn2)nnn1C)c1cc(F)cnc1F.Cl | 1.3 | 7920 | 0.71 | 15 | – |
| CNS(=O)(=O)c1ccc(-c2nnn(C)c2NC(=O)O[C@H](C)c2ccccc2Cl)cc1 | 2.6 | 893 | – | – | – |
| CCCCCCCC/C=C\CCCCCCCC(=O)OC[C@@H](O)COP(=O)(O)O [LYSOPHOSPHATIDIC ACID] | – | – | – | – | EC50 [20]: 47.3 nM; EC50 [21]: 306 nM |
| Cc1nc(-c2nnn(C)c2NC(=O)O[C@H](C)c2cccc(F)c2)ccc1NS(C)(=O)=O | 2.2 | – | 0.22 | 23 | – |
| C[C@@H](OC(=O)Nc1c(-c2ccc(NS(C)(=O)=O)cn2)nnn1C)c1cc(F)cnc1Cl | 1.7 | – | 0.18 | 5.5 | – |
| C[C@@H](OC(=O)Nc1c(-c2ccc(S(N)(=O)=O)cc2)nnn1C)c1ccccc1Cl | 2.2 | – | – | – | – |
| C[C@@H](OC(=O)Nc1c(-c2ccc(NS(C)(=O)=O)cn2)nnn1C)c1ccccc1 | 1.9 | – | 0.27 | 13 | – |
| Cc1nc(-c2nnn(C)c2NC(=O)O[C@H](C)c2ccccc2)ccc1NS(C)(=O)=O | 2.2 | – | 0.2 | 27 | – |
| C[C@@H](OC(=O)Nc1c(-c2ccc(NC(=O)C3(C(F)F)CC3)cn2)nnn1C)c1cc(F)cnc1F | 2.4 | 5250 | 0.56 | 40 | – |
| CC(=O)N(C)c1ccc(-c2nnn(C)c2NC(=O)O[C@H](C)c2ccccc2Cl)cc1 | 2.2 | 7530 | – | – | – |
| C[C@@H](OC(=O)Nc1c(-c2ccc(NS(=O)(=O)C(C)(C)C)cc2)nnn1C)c1ccccc1Cl | 3 | > 10000 | – | – | – |
| C[C@@H](OC(=O)Nc1c(-c2ccc(NC(=O)[C@@H]3CC3(F)F)cn2)nnn1C)c1cc(F)cnc1F | 2.2 | 576 | 0.35 | 12 | – |
| C[C@@H](OC(=O)Nc1c(-c2ccc(N)cc2)nnn1C)c1ccccc1Cl | 2.3 | 417 | – | – | – |

Continued, in another order:

| logD [1] | EC50 [4] [nM] | Compound | fraction unbound at 24 h [2] | Papp A→B at 4 h [3] [×10⁻⁶ cm/s] | further results |
| --- | --- | --- | --- | --- | --- |
| 1.6 | 81 | Cn1nnc(-c2ccc(NS(C)(=O)=O)cn2)c1NC(=O)O[C@H](CF)c1ccccc1 | 0.27 | 5 | – |
| 2.4 | 12 | C[C@@H](OC(=O)Nc1c(-c2ccc(NS(C)(=O)=O)cc2)nnn1C)c1ccccc1Cl | – | – | – |
| 2.2 | 32 | C[C@@H](OC(=O)Nc1c(-c2ccc(NS(=O)(=O)CC#N)cc2)nnn1C)c1ccccc1Cl | – | – | – |
| 2.2 | 30 | C[C@@H](OC(=O)Nc1c(-c2ccc(NS(C)(=O)=O)cn2)nnn1C)c1ccccc1Cl | – | 19 | – |
| 1.7 | 109 | Cc1ccc(C(=O)Nc2ccc(-c3nnn(C)c3NC(=O)O[C@H](C)c3cc(F)cnc3F)nc2)cn1 | 0.32 | 7.2 | – |
| 1.3 | 108 | C[C@@H](OC(=O)Nc1c(-c2ccc(NS(C)(=O)=O)cn2)nnn1C)c1cccnc1Cl | 0.26 | 2.8 | – |
| 2.5 | 11 | Cc1nc(-c2nnn(C)c2NC(=O)O[C@H](C)c2ccccc2Cl)ccc1NS(C)(=O)=O | 0.13 | 27 | – |
| 1.9 | 37 | C[C@@H](OC(=O)Nc1c(-c2ccc(NC(=O)C3(C#N)CC3)cn2)nnn1C)c1cc(F)cnc1F | 0.46 | 21 | – |
| 1.5 | 35 | C[C@@H](OC(=O)Nc1c(-c2ccc(NS(C)(=O)=O)cn2)nnn1C)c1cc(F)cnc1F | 0.31 | 3.2 | CLint scaled at 1 µM [5]: 7.17 mL/min/kg; AUC(0-t) at 24 h [6]: 13 µM·h; bioavailability [7]: 45%; half-life [8]: 3 h; half-life [9]: 3.8 h; Vd [10]: 0.4 L/kg; CLint scaled at 1 µM [11]: 18.5 mL/min/kg; CLint scaled at 1 µM [12]: 8.67 mL/min/kg; Vd [13]: 1 L/kg; AUC(0-t) at 24 h [14]: 5.4 µM·h; bioavailability [15]: 100%; bioavailability [16]: 55%; Vd [17]: 1 L/kg; AUC(0-t) at 24 h [18]: 25 µM·h; half-life [19]: 3.6 h |
| 1.1 | 186 | C[C@@H](OC(=O)Nc1c(-c2ccc(NS(C)(=O)=O)cn2)nnn1C)c1cccnc1F | 0.3 | 4.4 | – |
| 1.7 | 124 | Cc1nc(-c2nnn(C)c2NC(=O)O[C@H](C)c2cc(F)cnc2F)ccc1NS(C)(=O)=O | 0.15 | 8.8 | – |
| 2 | 51 | C[C@@H](OC(=O)Nc1c(-c2ccc(NC(=O)C34CC(C#N)(C3)C4)cn2)nnn1C)c1cc(F)cnc1F | 0.31 | 8.3 | – |
| 1.8 | 83 | Cc1nc(-c2nnn(C)c2NC(=O)O[C@H](C)c2cc(F)cnc2Cl)ccc1NS(C)(=O)=O | 0.13 | 13 | – |
| 2.3 | 77 | C[C@@H](OC(=O)Nc1c(-c2ccc(NC(=O)C34CC(F)(C3)C4)cn2)nnn1C)c1cc(F)cnc1F | 0.33 | 11 | – |
| 2.4 | 21 | C[C@@H](OC(=O)Nc1c(-c2ccc(NC(=O)C3CC(F)(F)C3)cn2)nnn1C)c1cc(F)cnc1F | 0.21 | 15 | – |
| 2.5 | 45 | Cc1nc(-c2nnn(C)c2NC(=O)O[C@@H](c2ccccc2)C(F)(F)F)ccc1NS(C)(=O)=O | 0.2 | 18 | – |
| 2.5 | 237 | C[C@@H](OC(=O)Nc1c(-c2ccc(O)cc2)nnn1C)c1ccccc1Cl | – | – | – |
| 1.5 | 109 | Cc1nc(-c2nnn(C)c2NC(=O)O[C@H](C)c2cccnc2Cl)ccc1NS(C)(=O)=O | 0.17 | 5.9 | dose excreted [22]: 50%; pKa at 100 µM [23]: 7.1 |
| 1.9 | 31 | Cc1nc(-c2nnn(C)c2NC(=O)O[C@H](CF)c2ccccc2)ccc1NS(C)(=O)=O | 0.29 | 17 | – |
| 2.7 | 25 | C[C@@H](OC(=O)Nc1c(-c2ccc(NC(=O)c3ccc(C(F)(F)F)nc3)cn2)nnn1C)c1cc(F)cnc1F | 0.15 | 14 | – |
| 2.1 | 122 | C[C@@H](OC(=O)Nc1c(-c2ccc(NS(C)(=O)=O)cn2)nnn1C)c1cc(F)ccc1F | 0.18 | 16 | – |
| 3.3 | 20 | C[C@@H](OC(=O)Nc1c(-c2ccc(NC(=O)C(F)(F)F)cc2)nnn1C)c1ccccc1Cl | – | – | – |
